From patent US20130116148A1, “LIVER DISEASE MARKER, METHOD AND APPARATUS FOR MEASURING THE SAME, AND METHOD FOR ASSAYING PHARMACEUTICAL PREPARATION” (KEIO UNIVERSITY, priority 2010, published 2013)

Experiments:
[1] = tested on: glutathione-biosynthesis pathway; assay: Administration of BSO and DEM to mice; γ-Glu-X and γ-Glu-X-Gly peptides in the murine serum; type: in vivo; settings: mouse serum, compared to the normal state
Protocol: Male mice were fasted overnight and anesthetized by an intraperitoneal injection of pentobarbital sodium (60 mg/Kg of body weight). Then, the mice were intraperitoneally injected with BSO, which is aγ-glutamyl cysteine synthase (GCS) inhibitor, and diethylmaleate (DEM), which is an electrophile (GCS activator), both at a dose of 4 mmol/kg of body weight (888 mg of BSO, 688 mg of DEM). The mouse as a healthy subject was intraperitoneally injected with physiological saline. Liver specimens (about 300 mg) were excised from the mice 1 hour after administration (5 times each). On the other hand, regarding the substances in the murine serum, γ-Glu-X peptides and γ-Glu-X-Gly peptides that were decreased by administration of BSO and were increased by administration of an electronic substance, DEM, compared to the normal state were only γ-[…]AB and ophthalmic acid (γ-[…]AB-Gly) (FIG. 22). Therefore, it is expected that, in the case of a mouse, only γ-[…]AB and ophthalmic acid are increased in the blood when glutathione is decreased because of the oxidative stress caused by electrophiles or the like.

[2] = tested on: glutathione-biosynthesis pathway; assay: Administration of GCS inhibitor BSO and GCS activator DEM to mice; metabolites in the livers by CE-TOFMS; type: in vivo; settings: mouse liver
Protocol: Male mice were fasted overnight and anesthetized by an intraperitoneal injection of pentobarbital sodium (60 mg/Kg of body weight). Then, the mice were intraperitoneally injected with BSO, which is aγ-glutamyl cysteine synthase (GCS) inhibitor, and diethylmaleate (DEM), which is an electrophile (GCS activator), both at a dose of 4 mmol/kg of body weight (888 mg of BSO, 688 mg of DEM). The mouse as a healthy subject was intraperitoneally injected with physiological saline. Liver specimens (about 300 mg) were excised from the mice 1 hour after administration (5 times each).
The liver specimens (about 300 mg) excised from the mice were immediately placed in 1 ml of methanol containing an internal standard substance and were homogenized to inactivate an enzyme, thereby stopping enhancement of metabolism. After 500 μl of pure water was added to the mixture, 300 μl of solution was taken out. To this solution, 200 μl of chloroform was added. After thorough stirring, the solution was further centrifuged at 15000 rpm for 15 minutes at 4° C. After allowing to stand, 300 μl of separated water-methanol phase was passed through a 5 kDa molecular weight cutoff filter for centrifugal ultrafiltration to deproteinize it. […]
The method described below was used to confirm that the detected γ-Glu-X peptides and γ-Glu-X-Gly peptides were synthesized in a glutathione-biosynthesis pathway.

glutathione = settings: mouse, large quantities of APAP, cited from earlier work

Row | SMILES | γ-Glu-2AB and ophthalmic acid (γ-Glu-2AB-Gly) in the murine serum [1] | amount of glutathione in the livers ([2]; 1 hour after i.p. 4 mmol/kg, compared to the healthy mouse) | γ-Glu-X and γ-Glu-X-Gly peptidic substances in the liver other than γ-Glu-Cys, GSH and γ-Glu-Ser-Gly ([2]; compared to the normal) | ophthalmic acid (glutathione; in inverse proportion to the glutathione level) | glutathione (glutathione)
1 | CCCCS(=N)(=O)CCC(N)C(=O)O (centres unmarked) [BSO, buthionine sulfoximine] | decreased | decreased rapidly | decreased |  | 
2 | CC(=O)Nc1ccc(O)cc1 [APAP, Acetaminophen] |  |  |  | increased rapidly | decreased
